Experimental data taken from PMC5668434, “Modulation of telomere protection by the PI3K/AKT pathway” (Nature Communications, 2017).
Like-named read-outs stand apart in the source and are kept apart here.

Columns and labels:
[1] = test system: TRF1 foci in CHA-9.3 mouse lung tumor cell line; experiment: TRF1 foci immunofluorescence in CHA-9.3 cells; format: cell-based; conditions: for Inhibition of TRF1 foci (in words): 10 μM (GSK-2126458 1.0 μM), 24 h, CHA-9.3; for TRF1 levels as compared to bortezomib/DMSO-treated control cells: 10 μM plus bortezomib 50 nM, CHA 9-3
[2] = test system: PRAS40 (T246) and pS6 (S235/236) in CHA 9-3 cells; experiment: Western blot of PI3K downstream targets PRAS40 (T246) and pS6 (S235/236); format: cell-based, mouse; conditions: 10 μM
Method: We also determined the effect of ETP-47037 and ETP-47228 in the inhibition of other PI3K downstream targets, PRAS40 (T246), and pS6 (S235/236)[64], [65] (Supplementary Fig. 1).
(§1) For detection of AKT, PRAS40 (T246) and pS6 in CHA9.3 cells, untreated control (DMSO) or treated with the indicated inhibitors, were lysed in RIPA buffer supplemented with 100 mM pefablock (Roche Diagnostics) and protease inhibitor cocktail (Roche Molecular Biochemicals). Proteins were resolved on 10% SDS-PAGE, and transferred to nitrocellulose membrane (Amersham^TM Protan^TM 0.2 µm nNC). Membranes were incubated with antibodies against phospho-AKT (Ser473), AKT, phospo-S6 (Ser 235/236), and S6Ribosomal from Cell Signaling, phospo-PRAS40 (Thr246) from BIOSURCE and anti α-tubulin form Sigma, overnight at 4 °C. After washing, blots were incubated with secondary antibody: Alexa Fluor 680 goat anti-rabbit IgG (Invitrogen) or anti-mouse IgG DyLight 800 conjugated (Thermo Scientific), and visualized using an Odyssey infrared imaging system (Li-Cor Biosciences).
Supplementary Figure 1. Modulation of PI3K/AKT downstream targets by ETP-47037 and ETP-47228. Representative Western blot images of PRAS40 phosphorylation at T246 and of P6 at S235/236 in CHIA 9-3 lung cancer cell line treated for 24 hours with 10 µM of ETP-47037 or with 10 µM of ETP-47228 at different time points of the treatment. […]

[3] = test system: panel of 24 kinases representing the human kinome; experiment: ProQinase 24 kinase selectivity panel (whole panel); format: biochemical; conditions: 1 µM
Method: The kinase selectivity of the inhibitors used here was ensured in order to discard potential off-targets effects contributing to the observed TRF1 modulation.
Supplementary Table 1: Kinase selectivity profile of ETP-47037 and ETP-47228 at 1 µM. Selectivity against protein kinases was determined from evaluation of compounds at 1µM in ProQinase’s 24 selected panel that represents the ACG, STE, TKL, TK, CMGC CAMK and CK1 kinase families.

[4] = test system: TRF1 foci in p53−/− mouse embryo fibroblasts (MEF); experiment: TRF1 foci immunofluorescence in p53−/− MEFs; format: cell-based; conditions: 10 μM, 24 h
Method: We then checked whether PI3Kα/AKT inhibition also leads to decreased TRF1 foci in an additional cell type to CHA-9.3 cells. Thus, we used p53 ^−/− mouse embryo fibroblasts (MEF). We treated these MEFs either with the AKT inhibitor MK-2206 or with ETP-47037 at 10 μM concentration for 24 h and analyzed TRF1 foci by immunofluorescence.
TRF1 immunofluorescence of TRF1 was performed in lung tumor-derived cell line (CHA9.3) and in MEFs[39]. A rat monoclonal antibody against mouse TRF1 developed by the Monoclonal antibody unit at CNIO was used to detect endogenous TRF1 (1:500). GFP-TRF1 fluorescence was directly measured in cells fixed in paraformaldehyde. For quantification of TRF1 foci intensity, pictures of fixed cells were automatically acquired from each well by the Opera HCS system (Perkin Elmer). Sixty images of random fields per well, with a 40× magnification lens, were taken under non-saturating conditions. At least 1 × 10^3 cells were analyzed for each well. Briefly, images were segmented using the DAPI staining to generate masks matching cell nuclei from which-TRF1 foci were analyzed.

PI3K-δ (p110δ/p85α) = molecular target: T1, PI3K-δ (p110δ/p85α) (Homo sapiens, UniProt O00329); experiment: PI3K isoforms biochemical assay (HTRF), PI3K-δ; conditions: read-out: PI3Kδ IC50
T1 construct: purchased Invitrogen PV 5274
Method: PI3Kα (p110α/p85α), PI3K-δ (p110δ/p85α), and PI3K-γ (p110γ) were purchased from Invitrogen (PV4789, PV 5274, and PV4787, respectively). PI3K-β (p110β/p85α) was obtained from Millipore (#14-603). The kinase activity was measured with the commercial PI3-kinase (human) HTRF™ assay available from Millipore (#33-017), following the manufacturer recommendations. The final enzyme concentration in the assay were 100 pM for PI3K-α and PI3K-δ, 500 pM for PI3K-β, and 4 nM for PI3K-γ. […] The enzyme was preincubated with the inhibitor and with 10 μM of PIP2 for 5 min. The enzymatic reaction was started by addition of ATP at 50 times the Km. The incubation was kept at 37 °C for 60 min. Stop solution and detection mix were added sequentially to the wells and plates were incubated 3 h in the dark at 25 °C. HTRF counts were measured in an EnVision reader (Perkin Elmer) using the recommended settings. Values were normalized against the control activity included for the enzyme (100% PI3 kinase activity, without compound). These values were plotted against the inhibitor concentration and were fit to a sigmoid dose-response curve by using Activity base software from IDBS.

[5] = test system: TRF1 protein in CHA 9-3 nuclear extracts; experiment: Western blot of nuclear TRF1 in CHA 9-3 cells; format: cell-based, mouse; conditions: 10 μM
Method: Blots were incubated with the primary antibodies anti-TRF1 1:500 (home-made monoclonal Rat, CNIO; TRF-78, ABCAM, ab10579) and with anti-SMC1 1:2000 (Bethyl Laboratories #A300-055A) as loading control. For nuclear protein preparation, the Nuclear/Cytosol Fractionation Kit (K266-100, BioVision) was used according to the manufactures protocol.

[6] = test system: p-AKT S473 in CHA-9.3 mouse lung cancer cell line; experiment: Western blot of AKT phosphorylation at Ser473 in CHA-9.3 cells; format: cell-based; conditions: for p-AKT S473 inhibition (in words): 10 μM time course; for inhibition at 10 µM: Mus musculus
Method: These new chemical probes were prepared by replacement of a single key oxygen atom from the morpholine moiety by a methylene group, generating the piperidine derivatives ETP-51259 and ETP-50952 (Fig. 1a). To assess their PI3K cellular activity, we measured phosphorylation of residue Ser473 in AKT (p-AKT S473), a PI3K downstream target[61]–[63], by western blot analysis. To this end, we used the CHA-9.3 mouse lung cancer cell line previously generated by us[39]. […] Of note, the inhibitory activity of ETP-47037 was more prolonged than that of ETP-47228. Thus, ETP-47037 mediated p-AKT S473 inhibition was maintained during the 24-hour treatment while the ETP-47228 mediated inhibition decreased 35% after 24 h as compared to 1-h treatment but still was able to inhibit the pathway above 50% (Fig. 1c).
as §1

IPSCs = test system: IPSCs; parameters: method as in PMID 25971796; conditions: cited from earlier work
[7] = 1 h, 1 h, read-out: Inhibition pAKT (Ser 473) with regard to DMSO
[8] = 4 h, 4 h, read-out: Inhibition pAKT (Ser 473) with regard to DMSO
[9] = 8 h, 8 h, read-out: Inhibition pAKT (Ser 473) with regard to DMSO
[10] = 16 h, 16 h, read-out: Inhibition pAKT (Ser 473) with regard to DMSO
[11] = 24 h, 24 h, read-out: Inhibition pAKT (Ser 473) with regard to DMSO

T1 sequence (O00329 whole entry, canonical isoform): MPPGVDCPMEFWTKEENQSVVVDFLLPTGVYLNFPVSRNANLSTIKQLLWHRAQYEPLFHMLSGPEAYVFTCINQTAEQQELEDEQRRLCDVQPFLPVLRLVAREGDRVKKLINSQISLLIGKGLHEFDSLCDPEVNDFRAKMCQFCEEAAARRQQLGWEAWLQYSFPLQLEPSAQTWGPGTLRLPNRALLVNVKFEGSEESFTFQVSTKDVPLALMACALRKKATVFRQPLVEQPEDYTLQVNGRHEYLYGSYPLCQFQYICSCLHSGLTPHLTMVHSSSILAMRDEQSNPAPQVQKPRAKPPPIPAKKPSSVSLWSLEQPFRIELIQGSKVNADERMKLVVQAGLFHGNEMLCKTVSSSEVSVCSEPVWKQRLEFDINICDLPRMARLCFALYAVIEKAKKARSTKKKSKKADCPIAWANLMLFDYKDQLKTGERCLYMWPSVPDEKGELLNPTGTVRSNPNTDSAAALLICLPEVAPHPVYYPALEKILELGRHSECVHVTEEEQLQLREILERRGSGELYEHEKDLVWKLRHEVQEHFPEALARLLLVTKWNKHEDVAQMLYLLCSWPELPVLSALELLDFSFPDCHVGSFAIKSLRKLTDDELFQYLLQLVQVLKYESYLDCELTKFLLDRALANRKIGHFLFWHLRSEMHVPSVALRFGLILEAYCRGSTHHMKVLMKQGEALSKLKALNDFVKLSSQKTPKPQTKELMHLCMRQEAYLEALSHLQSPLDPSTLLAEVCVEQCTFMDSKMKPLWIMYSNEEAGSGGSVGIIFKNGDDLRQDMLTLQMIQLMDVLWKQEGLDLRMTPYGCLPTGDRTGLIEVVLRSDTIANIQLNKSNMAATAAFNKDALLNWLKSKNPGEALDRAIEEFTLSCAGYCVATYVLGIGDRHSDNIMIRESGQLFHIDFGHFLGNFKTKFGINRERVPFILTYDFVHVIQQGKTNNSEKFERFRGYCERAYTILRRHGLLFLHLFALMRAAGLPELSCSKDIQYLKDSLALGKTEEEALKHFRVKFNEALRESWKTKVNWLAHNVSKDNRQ
T1 sequence (P27986 whole entry partner, canonical isoform): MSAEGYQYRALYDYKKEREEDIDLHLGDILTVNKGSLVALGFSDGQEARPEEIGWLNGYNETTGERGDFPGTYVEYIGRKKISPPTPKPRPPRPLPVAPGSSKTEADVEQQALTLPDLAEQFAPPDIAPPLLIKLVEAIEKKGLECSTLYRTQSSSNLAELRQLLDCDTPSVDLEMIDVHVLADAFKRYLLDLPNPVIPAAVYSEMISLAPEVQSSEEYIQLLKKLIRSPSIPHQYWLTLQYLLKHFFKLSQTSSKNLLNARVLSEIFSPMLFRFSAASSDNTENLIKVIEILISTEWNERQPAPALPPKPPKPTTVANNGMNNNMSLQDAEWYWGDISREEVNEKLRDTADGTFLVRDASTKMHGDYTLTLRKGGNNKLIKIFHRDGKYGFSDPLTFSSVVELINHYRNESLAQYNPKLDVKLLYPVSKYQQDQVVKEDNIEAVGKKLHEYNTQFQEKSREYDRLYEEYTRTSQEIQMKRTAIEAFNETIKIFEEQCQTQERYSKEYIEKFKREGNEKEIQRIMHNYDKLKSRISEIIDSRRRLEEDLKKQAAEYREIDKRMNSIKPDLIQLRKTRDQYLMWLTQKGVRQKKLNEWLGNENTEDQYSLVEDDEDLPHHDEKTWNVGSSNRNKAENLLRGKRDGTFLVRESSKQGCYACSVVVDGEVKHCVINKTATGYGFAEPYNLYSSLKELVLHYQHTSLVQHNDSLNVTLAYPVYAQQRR

| SMILES | Inhibition of TRF1 foci (in words) [1] | TRF1 levels as compared to bortezomib/DMSO-treated control cells [1] | Inhibition of PI3K downstream targets PRAS40 (T246) and pS6 (S235/236) (in words) [2] | Inhibition of any kinase of the 24 kinase panel (in words) [3] | Reduction in TRF1 foci intensity [4] [%] | IC50 (PI3K-δ (p110δ/p85α)) [nM] | TRF1 protein levels in nuclear extracts [5] | p-AKT S473 inhibition (in words) [6] | inhibition at 10 µM [6, 7] [%] | inhibition at 10 µM [6, 8] [%] | inhibition at 10 µM [6, 9] [%] | inhibition at 10 µM [6, 10] [%] | inhibition at 10 µM [6, 11] [%] | Formation of MTS in IPSCs (IPSCs) | inhibition at 10 µM ([6]; read-out: Decrease of p-AKT S473 inhibition after 24 h as compared to 1-h treatment) [%] |
| --- | --- | --- | --- | --- | --- | --- | --- | --- | --- | --- | --- | --- | --- | --- | --- |
| CS(=O)(=O)N1CCN(Cc2cc3c(N4CCOCC4)nc(-c4cnc(N)nc4)cn3n2)CC1 [ETP-47037] | efficient inhibition of TRF1 foci | significantly lower | bona fide inhibitors of the PI3K/AKT axis | negligible inhibition of any kinase tested | 34 | 7.13 | significantly decreased | strongly inhibited | 92 | 97 | 96 | 97 | 94 | induce formation of MTS |  |
| Cc1cnc2c(N3CCOCC3)nc(-c3ccc(NC(=O)Nc4ccc(C(=O)N5CCN(C)CC5)cc4)cc3)cn12 [ETP-47228] | efficient inhibition of TRF1 foci | significantly lower | bona fide inhibitors of the PI3K/AKT axis | negligible inhibition of any kinase tested |  |  | significantly decreased | strongly inhibited | 90 | 93 | 78 | 66 | 59 | induce formation of MTS | 35 |
